These results are taken from patent US8716292B2, “Riminophenazines with 2-(heteroaryl)amino substituents and their anti-microbial activity” (priority 2010, dated 2014).

≈ marks a conversion by molar mass, not a printed value. Where two headings read alike, the source gives them in different places.

The subject of data set [1] is Mycobacterium tuberculosis. The following applies: relative to clofazimine; cited from earlier work.
Data set [2] has as its system tuberculosis. The following applies: mice; cited from earlier work.
In data set [3] the test system is tuberculosis. The following applies: hamsters; cited from earlier work.
Data set [4] deals with tuberculosis. To be noted: guinea pig model; cited from earlier work.
In data set [5] the test system is tuberculosis. To be noted: monkey model; cited from earlier work.
The conditions of data set [6]: in vivo; cited from earlier work.
Data set [7] deals with Mycobacterium tuberculosis H37Rv strains. Description: In vitro assay for antimicrobial susceptibility (microplate Alamar blue MIC). In kind it is cell-based. To be noted: Mycobacterium tuberculosis, H37RV, in vitro, Mycobacterium tuberculosis H37Rv strains; read-out: MIC (μg/mL) against H37Rv.

Regarding `CCN(CC)CCC/N=c1\cc2n(-c3ccc(Cl)c(Cl)c3)c3ccccc3nc-2cc1Nc1ccc(Cl)c(Cl)c1` [B4154], the in vitro activity entry in data set [1] is reported as “improved in vitro activity”.
As a reminder, the half-life is the time needed for the level to fall by half in the phase considered. `CC(C)/N=c1\cc2n(-c3ccc(Cl)cc3)c3ccccc3nc-2cc1Nc1ccc(Cl)cc1` [clofazimine]: the “in vivo anti-TB activity” value in the data set with tuberculosis [2] and with tuberculosis [3] was “demonstrated in vivo anti-TB activity” throughout. Besides, the efficacy entry in the data set with tuberculosis [4] and with tuberculosis [5] was “failed to show efficacy” throughout. Moreover, the half-life in data set [6] is 70 days.
The melting point is the temperature, or range, at which the solid turns liquid. `Clc1ccc(-n2c3c/c(=N\C4CCCCC4)c(Nc4cccnc4)cc-3nc3ccccc32)cc1` [TBI-422, 5-(4-Chlorophenyl)-3-cyclohexylimino-2-(3-pyridyl)amino-3,5-dihydrophenazine]: the melting point lay within 194 to 196 °C. In addition, in data set [7], the MIC came to 0.06 µg/mL (≈ 0.125 µM).
For `CC(C)CN1CCC(/N=c2\cc3n(-c4ccc(Cl)cc4)c4ccccc4nc-3cc2Nc2cccnc2)CC1` [TBI-435, 5-(4-Chlorophenyl)-3-(N-isobutyl-4-piperidyl)imino-2-(3-pyridyl)amino-3,5-dihydrophenazine] the same measures were 209 to 210 °C and 0.25 µg/mL (≈ 0.465 µM).
As for `Clc1ccc(-n2c3c/c(=N\C4CCOCC4)c(Nc4cccnc4)cc-3nc3ccccc32)cc1` [TBI-434, 5-(4-Chlorophenyl)-3-(4-tetrahydropyranyl)imino-2-(3-pyridyl)amino-3,5-dihydrophenazine], the melting point was 215 to 217 °C. In addition, the MIC in data set [7] is 0.03 µg/mL (≈ 0.0622 µM).
The molecule `COC1CCC(/N=c2\cc3n(-c4ccc(Cl)cc4)c4ccccc4nc-3cc2Nc2cccnc2)CC1` (stereo not shown) [TBI-436, 5-(4-Chlorophenyl)-3-(4-methoxycyclohexyl)imino-2-(3-pyridyl)amino-3,5-dihydrophenazine] gave a melting point of 228 to 230 °C. Besides, the MIC in data set [7] was 0.03 µg/mL (≈ 0.0588 µM).
`Clc1ccc(-n2c3c/c(=N\C4CCN(C5CCCC5)CC4)c(Nc4cccnc4)cc-3nc3ccccc32)cc1` [TBI-437, 5-(4-Chlorophenyl)-3-(N-cyclopentyl-4-piperidyl)imino-2-(3-pyridyl)amino-3,5-dihydrophenazine] had a melting point of 170 to 172 °C. Further, the MIC in data set [7] worked out at 0.125 µg/mL (≈ 0.228 µM).
